The target in data set [1] is T1, human muscarinic M1 receptor (Homo sapiens, UniProt P11229).
T1 construct: expressed in transfected cells
T1 sequence (P11229 1-460): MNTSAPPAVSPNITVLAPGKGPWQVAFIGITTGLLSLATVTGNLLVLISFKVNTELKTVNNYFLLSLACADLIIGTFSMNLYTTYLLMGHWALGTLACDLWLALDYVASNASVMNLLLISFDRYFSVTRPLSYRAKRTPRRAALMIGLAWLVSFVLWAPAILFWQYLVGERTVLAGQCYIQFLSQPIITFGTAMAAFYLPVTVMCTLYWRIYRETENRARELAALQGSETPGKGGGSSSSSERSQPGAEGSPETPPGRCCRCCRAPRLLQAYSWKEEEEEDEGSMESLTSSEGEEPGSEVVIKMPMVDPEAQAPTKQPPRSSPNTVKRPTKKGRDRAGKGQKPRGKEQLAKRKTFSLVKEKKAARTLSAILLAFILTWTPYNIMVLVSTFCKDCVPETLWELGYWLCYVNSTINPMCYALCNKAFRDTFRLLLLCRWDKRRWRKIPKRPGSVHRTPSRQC
Nature of the data set: Alphascreen Surefire phospho-ERK1/2 assay, M1. Conditions: for EC50: CHO cells, agonist 5 min, read-out: pEC50 M1 (converted). It counts as cell-based. On the procedure: (§1) ERK1/2 phosphorylation is a downstream consequence of both Gq/11 and Gi/o protein coupled receptor activation, making it highly suitable for the assessment of M1, M3 (Gq/11 coupled) and M2, M4 receptors (Gi/o coupled), rather than using different assay formats for different receptor subtypes. CHO cells stably expressing the human muscarinic M1, M2, M3 or M4 receptor were plated (25K/well) onto 96-well tissue culture plates in MEM-alpha+10% dialysed FBS. Once adhered, cells were serum-starved overnight. Agonist stimulation was performed by the addition of 5 μL agonist to the cells for 5 min (37° C.). Media was removed and 50 μL of lysis buffer added.
(Bead proximity is the source of the signal in Alpha formats.)

Data set [2] relates to scopolamine-induced amnesia. The experiment in a line: Passive avoidance task. It counts as in vivo. To be noted: 3, 10, 30 mg/kg po. On the procedure:
Studies were carried out as described previously by Foley et al., (2004) Neuropsychopharmacology. In the passive avoidance task scopolamine administration (1 mg/kg, i.p.) at 6 hours following training rendered animals amnesic of the paradigm. A dose range of 3, 10, and 30 mg/kg (po) free base, administered 90 minutes prior to the training period via oral gavage, was examined.

The target of data set [3] is T2, human muscarinic M4 receptor (Homo sapiens, UniProt P08173).
T2 construct: expressed in transfected cells
T2 sequence (P08173 1-479): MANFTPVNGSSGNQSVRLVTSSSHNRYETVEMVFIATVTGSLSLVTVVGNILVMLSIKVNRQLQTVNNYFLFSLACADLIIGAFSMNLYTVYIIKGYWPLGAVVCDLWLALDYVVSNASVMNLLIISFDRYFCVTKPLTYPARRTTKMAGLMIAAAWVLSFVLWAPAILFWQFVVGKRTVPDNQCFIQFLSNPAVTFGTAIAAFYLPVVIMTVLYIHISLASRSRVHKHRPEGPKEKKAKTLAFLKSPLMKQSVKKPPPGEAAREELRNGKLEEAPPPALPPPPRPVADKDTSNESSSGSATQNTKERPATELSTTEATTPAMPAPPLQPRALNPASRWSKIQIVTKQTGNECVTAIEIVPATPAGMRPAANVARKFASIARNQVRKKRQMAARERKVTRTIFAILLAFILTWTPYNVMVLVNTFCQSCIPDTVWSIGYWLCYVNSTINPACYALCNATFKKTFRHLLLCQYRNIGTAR
The experiment in a line: Alphascreen Surefire phospho-ERK1/2 assay, M4. It counts as cell-based. To be noted: CHO cells, agonist 5 min; read-out: pEC50 M4 (converted). The protocol: as §1

Data set [4] has as its target T3, human muscarinic M2 receptor (Homo sapiens, UniProt P08172).
T3 construct: expressed in transfected cells
T3 sequence (P08172 1-466): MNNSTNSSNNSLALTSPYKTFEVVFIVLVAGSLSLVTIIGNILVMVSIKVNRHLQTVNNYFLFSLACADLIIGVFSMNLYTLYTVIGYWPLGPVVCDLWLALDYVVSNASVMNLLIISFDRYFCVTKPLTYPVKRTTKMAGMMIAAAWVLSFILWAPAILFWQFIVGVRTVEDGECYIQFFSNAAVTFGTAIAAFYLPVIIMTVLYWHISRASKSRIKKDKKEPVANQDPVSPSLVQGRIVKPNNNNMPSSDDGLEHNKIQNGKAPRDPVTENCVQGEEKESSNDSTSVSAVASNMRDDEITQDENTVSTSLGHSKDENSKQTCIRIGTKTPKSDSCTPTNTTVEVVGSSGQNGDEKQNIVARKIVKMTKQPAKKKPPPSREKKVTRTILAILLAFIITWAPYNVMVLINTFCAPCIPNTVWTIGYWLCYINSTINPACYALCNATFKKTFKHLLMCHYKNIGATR
Nature of the data set: Alphascreen Surefire phospho-ERK1/2 assay, M2. To be noted: CHO cells, agonist 5 min. It counts as cell-based. The protocol:
as §1

For data set [5], the target named is T4, human muscarinic M3 receptor (Homo sapiens, UniProt P20309).
T4 construct: expressed in transfected cells
T4 sequence (P20309 whole entry): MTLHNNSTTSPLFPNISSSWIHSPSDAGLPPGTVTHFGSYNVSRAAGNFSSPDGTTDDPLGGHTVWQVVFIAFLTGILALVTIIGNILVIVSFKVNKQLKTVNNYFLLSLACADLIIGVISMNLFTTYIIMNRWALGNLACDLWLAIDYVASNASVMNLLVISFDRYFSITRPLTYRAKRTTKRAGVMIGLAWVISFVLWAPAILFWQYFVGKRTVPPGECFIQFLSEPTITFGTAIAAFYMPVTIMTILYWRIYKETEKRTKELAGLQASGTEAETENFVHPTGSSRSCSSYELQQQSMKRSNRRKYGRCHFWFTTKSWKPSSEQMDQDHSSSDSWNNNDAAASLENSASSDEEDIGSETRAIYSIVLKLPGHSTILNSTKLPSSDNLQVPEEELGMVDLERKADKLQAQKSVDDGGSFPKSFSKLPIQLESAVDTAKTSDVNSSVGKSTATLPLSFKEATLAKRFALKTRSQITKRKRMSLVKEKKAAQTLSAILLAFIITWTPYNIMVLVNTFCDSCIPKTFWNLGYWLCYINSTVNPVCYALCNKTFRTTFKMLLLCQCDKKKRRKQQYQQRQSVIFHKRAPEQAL
Nature of the data set: Alphascreen Surefire phospho-ERK1/2 assay, M3. Conditions: CHO cells, agonist 5 min; read-out: pEC50 M3 (converted). It counts as cell-based. On the procedure: as §1

Data set [6] relates to patients with mild-to-moderate AD. To be noted: human, in vivo; cited from earlier work.

In general, Emax refers to the greatest response seen or fitted, relative to the assay's reference.

Regarding `CCOC(=O)N1C2CCC1CC(N1CCC3(CC1)CNC(=O)C3)C2` (single isomer, unassigned) [Example 2-2 Isomer 1, ethyl 3-(3-oxo-2,8-diazaspiro[4.5]dec-8-yl)-8-azabicyclo[3.2.1]octane-8-carboxylate], the EC50 was 0.0794 µM in data set [1], 0.2 µM in data set [3], more than 20 µM in data set [4] (read-out: pEC50 M2 (converted)) and more than 20 µM in data set [5]. Further, the maximal effect (Emax) in data set [1] (CHO, read-out: % Emax cf. ACh, M1, CHO cells, agonist 5 min) was determined as 99%; in data set [4] (read-out: % Emax cf. ACh, M2), 0%. In data set [2], the “effect on scopolamine-induced amnesia” value is listed as “reverse scopolamine-induced amnesia of the paradigm in a dose-dependent manner”.
For the compound `CCOC(=O)N1C2CCC1CC(N1CCC3(CC1)CNC(=O)C3)C2` (single isomer, unassigned) [Example 2-2 Isomer 2, ethyl 3-(3-oxo-2,8-diazaspiro[4.5]dec-8-yl)-8-azabicyclo[3.2.1]octane-8-carboxylate], the EC50 in data set [1] is 0.0126 µM; in data set [3] it was 0.0251 µM.
In the case of `Cc1ccc(Cc2cc3c(=O)n([C@H]4CCCC[C@@H]4O)cnc3c3ccccc23)cn1` [MK-7622], the “incidence of cholinergic adverse events” value in data set [6] is listed as 21%.
